Measured values taken from patent US11779555B2, “Combination of immunotherapy with local chemotherapy for the treatment of malignancies” (THE JOHNS HOPKINS UNIVERSITY, priority 2015, dated 2023).

Experiments:
[1] = system: intracranial GL-261 LUC gliomas; experiment: Survival of mice with intracranial GL-261 gliomas; type: in vivo, C57BL/6J mice; details: Example 3; chemotherapy at day 14, post anti-PD1
Procedure: Tumor model: Female C57BL/6J mice (The Jackson Laboratory, Bar Harbor, Me.), 6 to 8 weeks old, were implanted (Day 0) with GL-261 LUC cells to establish intracranial gliomas, as previously described (Zeng et al., 2013). Briefly, mice were anesthetized with ketamine/xylazine (100 mg/kg ketamine, 10 mg/kg xylazine) and a small midline incision was made to expose the skull. A burr hole was then drilled directly over the striatum and 130,000 GL-261 LUC cells were implanted at a depth of 3 mm from the cortical surface. The tumor take rate was 100%. Day 7 post implantation, mice were imaged to assess the progress of tumor growth using an IVIS platform (In Vivo Imaging System, Caliper Life Sciences, Hopkinton, Mass.). Mice were then stratified into experimental treatment groups based on luminescence. Each treatment group had 5 to 15 mice in the survival experiments. […]
Surgical procedure: polymer implantation: Mice in the LC or EP treatment groups were anesthetized with ketamine/xylazine (100 mg/kg ketamine, 10 mg/kg xylazine). […] Mice were monitored for a period of 30 min after recovery for signs of neurological deficits. […]
Statistics: Survival was plotted using Kaplan-Meier curves, and curves were analyzed with the log-rank Mantel-Cox test using GraphPad Prism software (GraphPad Software, La Jolla, Calif.). […]

[2] = system: tumor infiltrating lymphocytes; experiment: Flow cytometric analysis of tumor infiltrating lymphocytes (TILs)
Description: (§1) Flow cytometric analysis of tumor infiltrating immune cells and peripheral lymphoid cell populations: At day 21 or day 30 post tumor implantation, mice were sacrificed using a lethal dose of ketamine/xylazine cocktail. The spleen, brain, cervical lymph nodes (LN), and bone marrow were harvested and passed through a 40-μm strainer. A 30%-37%-60% Percoll gradient (GE Healthcare, Buckinghamshire, UK) was used to isolate immune cell populations from brain tumors and the draining LNs. After centrifugation, the 37%-60% interface contained lymphocytes, monocytes, and microglia in the case of brain tumors, and lymphocytes and monocytes in the case of draining LNs.
(§2) Lymphocytes from all tissues were stimulated with PMA-Ionomycin and Golgi stop (eBioscience) for 4-6 hours in a 37° C. humidified incubator maintained at 5% CO2. […] For the memory T cells, lymphocytes were stained with CD62L PE (BD Biosciences) and CD44 BV421 (BD Biosciences). […] Appropriate isotype controls were used. For the adoptive transfer experiment, CD45.2 PE Clone: 104 (eBioscience) was used to stain the isolated lymphocytes.

CD3+ blood lymphocytes = experiment: Circulating CD3+ lymphocytes in peripheral blood (serial blood draws); type: in vivo, C57BL/6J mice; details: Day 30 post implantation, end of regimen, lasting at least 2 weeks
Procedure: Peripheral blood was collected by cardiac puncture before harvesting other tissues at day 21 and 30. A total of 600 μL was collected from each mouse in heparin-coated tubes (BD Biosciences, Franklin Lakes, N.J.). Blood was mixed with PBS in a 1:1 ratio and overlaid onto a Ficoll-Paque Plus (GE Healthcare) base in a 1:3 ratio. After centrifugation, peripheral lymphocytes were extracted from the resulting horizon and were washed twice with PBS. In addition to the blood draws performed on days 21 or 30 post implantation, blood draws were also performed on days 26 and 41 post implantation. On these days, blood was taken via tail vein sampling and 100 μL of blood was collected for every mouse. Red blood cells were lysed using RBC Lysis Buffer (eBioscience) and subsequently stained with CD3 FITC Clone: 17A2 (eBioscience). All flow cytometry experiments were performed on a LSRII (BD Biosciences) and analysis was performed using FlowJo software (TreeStar, Ashland, Oreg.).

[3] = system: lymphocytes of draining lymph nodes, spleen and blood; experiment: Flow cytometric analysis of draining lymph nodes and peripheral lymphoid organs
Description: as §1, with “Flow cytometric analysis of tumor infiltrating immune cells and peripheral lymphoid cell populations: At day 21 or day 30 post tumor implantation, mice were sacrificed using a lethal dose of ketamine/xylazine cocktail.” left out
as §2

bone marrow cells = experiment: Bone marrow cellularity and CD45+ leukocytes; type: in vivo, C57BL/6J mice
Description: (§3) Appropriate isotype controls were used.

[4] = system: adoptively transferred ova specific (CD45.2) T cells; experiment: Adoptive transfer of OT-I lymphocytes in GL-261 ova tumor bearing mice; type: in vivo; details: four days after adoptive transfer, three days after initiation of chemotherapy
Description: Adoptive transfer experiments: For the adoptive transfer experiments, 5 week old female B6.SJL-Ptprca Pepcb/BoyJ mice expressing the congenic marker CD45.1 were used as the recipient mice. Inbred C57BL6/J (B6), B6.129S7-Rag1tm1Mom/J (RAG^−/−), B6.SJL-Ptprcb Pepcb/BoyJ (CD45.2) and C57BL/6-Tg(TcraTcrb)1100Mjb/J (OT-I) mice were purchased from The Jackson Laboratory. 6-8 weeks old female RAG−/− OT-I CD45.2 transgenic mice were used as the donor mice.
RAG−/− OT-I CD45.2 mice were lethally anesthetized and their spleens were harvested and passed through a 40-μM nylon mesh. Red blood cell lysis buffer was consecutively applied to remove red blood cells. Cells were counted, checked for their viability, and washed twice with PBS. Two million cells were transferred in 100 uL of PBS for every recipient mouse via retro-orbital injection.
Mice were implanted with 300,000 Gl-261-ova-luc cells at day 0 and RAG−/− OT-I CD45.2 lymphocytes were transferred at day 13: 1 day before starting treatment with chemotherapy. The experimental schedule of the GL-261-ova tumor experiments is explained in detail in FIG. 1.
as §3

OT-I T cells = experiment: In vivo proliferation of adoptively transferred OT-I T cells in the spleen; design: species or system mice; details: three days after the transfer
Procedure: For in vivo cell proliferation tracing, OT-I RAG−/− splenocytes were labeled with cell proliferation dye eFluor450 (eBioscience, San Diego, Calif.) in the following way: Lymphocytes were isolated from spleen cells, their viability was checked post-isolation, and viable lymphocytes were washed with HBSS without Ca^2+ or Mg^2+ once in preparation for the staining. A 10 μM solution of the cell proliferation dye was made in HBSS without Ca^2+ and Mg^2+. After washing the isolated cells, the cells were reconstituted by adding the 10 μM dye solution to a concentration of 5×10^6 cells/mL. While the solution was added to the cells, the tube was gently vortexed to ensure homogeneous uptake of the dye by all cells.
The cells were incubated for 8 min in the dark at room temperature. Cells were quenched with 20 mls of HBSS with 20% FBS and were then spun at 1400 rpm for 5 min at 4° C. Cells were washed with HBSS without FBS an additional two times and cells were checked for viability. Cells were resuspended with HBSS (w/o FBS) to a concentration of 10×10^6 cells/mL. The cells were passed through a […] cell strainer to ensure they were in a single cell suspension and 100 μL of the cell suspension was injected retro-orbitally in the recipient mice immediately.

[5] = system: GL-261 LUC cells in the contralateral hemisphere; experiment: Tumor re-challenge of long-term survivors; type: in vivo, mice
Procedure: Re-challenge experiments: Tumor burden was assessed weekly with IVIS imaging. Mice were considered “cured” of their brain tumors following initial treatment if no evidence of tumor was present at consecutive IVIS imaging sessions, and mice were further considered long-term survivors if no tumor was detected 90 days post implantation. […] Cells were prepared in 14 of PBS. Naïve mice were implanted in parallel as controls, and mice were followed with weekly IVIS imaging.

effector memory T cells = experiment: IFNγ production of memory T cells after re-challenge; type: in vivo, mice; details: twenty days after re-challenge, PMA/Ionomycin stimulation
Procedure: as §3
Re-challenge experiments: Tumor burden was assessed weekly with IVIS imaging. Mice were considered “cured” of their brain tumors following initial treatment if no evidence of tumor was present at consecutive IVIS imaging sessions, and mice were further considered long-term survivors if no tumor was detected 90 days post implantation. Long-term survivors from each experimental group were re-challenged 90 days post implantation with 300,000 GL-261 LUC cells injected intracranially in the contralateral hemisphere. Cells were prepared in […]. Naïve mice were implanted in parallel as controls, and mice were followed with weekly IVIS imaging.

## O=NN(CCCl)C(=O)NCCCl [i.p. BCNU, BCNU]
[1]
  median survival: 45 days
[2]; day 21
  percent of CD4+FoxP3+ regulatory cells (Tregs) in TILs: 55%
  percentage of recovered CD8+ TILs producing IFNγ: 35%
[2]; day 30 post implantation
  density of CD3+ TILs (number of cells normalized by tumor volume): 40 cells
CD3+ blood lymphocytes
  CD3+ lymphocytes in peripheral blood: severely lymphodepleted
[3]; Example 3
  CD3+ cells and CD8+ IFN-γ+ cells in draining lymph nodes: lymphodepletion of both CD3+ cells and CD8+ IFN-γ+ cells
[3]; cured mice, 4 months from tumor implantation
  lymphocytes recovered from spleen, LN and blood vs untreated or LC treated mice: decreased number of recovered lymphocytes
Bone marrow cells; Example 2
  myelotoxicity (BM cellularity and CD45 leukocytes vs control): late myelotoxicity
Bone marrow cells; Example 3
  CD45+ bone marrow cells (leukocytes) vs control, LC or LC+anti-PD1: decreased cell numbers
  bone marrow cellularity (live-dead staining): significant decrease in cellularity
[4]
  CD3+CD45.2+ cells within the tumor microenvironment: 4%
  CD3+CD45.2+ transferred cells in the DLNs: 3%
OT-I T cells
  OT-I cells divided (dilution of cell proliferation dye): 29.9%
[5]; experimental day 104
  size of the spleen at necropsy vs LC and anti-PD1 treated mice: significantly decreased
[5]; long term survivors
  tumor growth after re-challenge in the contralateral hemisphere: not able to inhibit tumor growth
Effector memory T cells
  IFNγ production of CD8+CD44[high]CD62L[low] cells from DLNs, spleen or peripheral blood: dysfunctional IFNγ production
